In patent publication US10800792B2, “Inhibitors of Bruton's tyrosine kinase and method of their use” (JANSSEN PHARMACEUTICA NV, priority 2015, dated 2020):

What follows are molecules tested against unphosphorylated-BTK kinase domain (UP-BTK), GST-tagged human BTK (389-659aa) (Homo sapiens (Human), UniProt Q06187) (assay: BTK kinase Lanthascreen binding assay). Conditions: Lanthascreen tracer competition, 60 minutes incubation; pIC50 = negative log of the IC50 in molar.
In short: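 Lanthascreen competition binding; test compound vs fluorescent tracer on unphosphorylated BTK. Output: pIC50 (−log IC50, M).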

unphosphorylated-BTK kinase domain (UP-BTK), GST-tagged human BTK (389-659aa), sequence (Q06187 389-659): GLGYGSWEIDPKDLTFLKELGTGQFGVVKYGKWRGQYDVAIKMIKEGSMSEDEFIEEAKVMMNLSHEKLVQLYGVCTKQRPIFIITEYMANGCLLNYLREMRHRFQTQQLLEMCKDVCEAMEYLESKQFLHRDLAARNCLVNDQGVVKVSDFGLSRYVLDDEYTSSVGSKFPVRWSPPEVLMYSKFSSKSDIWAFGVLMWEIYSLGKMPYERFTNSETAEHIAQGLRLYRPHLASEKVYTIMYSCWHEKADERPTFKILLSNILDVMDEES

Structure (SMILES) | BTK_I_binding pIC50
N#CN1CCC(NC(=O)c2sc3nccc4c3c2NC(=O)N4c2ccc(Oc3ccccc3)cc2)CC1 [Example 594, N-(1-Cyanopiperidin-4-yl)-4-oxo-5-(4-phenoxyphenyl)-4,5-dihydro-3H-1-thia-3,5,8-triazaacenaphthylene-2-carboxamide] | 7.1
CCC(=O)N1CC[C@@H](NC(=O)c2sc3nccc4c3c2NC(=O)N4c2ccc(Oc3ccccc3)cc2C)C1 [Example 843, (R)-5-(2-Methyl-4-phenoxyphenyl)-4-oxo-N-(1-propionylpyrrolidin-3-yl)-4,5-dihydro-3H-1-thia-3,5,8-triazaacenaphthylene-2-carboxamide] | 7.6
Cc1cc(Oc2ccccc2)ccc1N1C(=O)Nc2c(C(=O)N[C@H]3CCCN(C=O)C3)sc3nccc1c23 [Example 879, (S)—N-(1-Formylpiperidin-3-yl)-5-(2-methyl-4-phenoxyphenyl)-4-oxo-4,5-dihydro-3H-1-thia-3,5,8-triazaacenaphthylene-2-carboxamide] | 7.1
C=CC(=O)N1CCC[C@@H](NC(=O)c2sc3nccc4c3c2NC(=O)N4c2ccc(Oc3ccc(C)cn3)cc2)C1 [Example 786, (R)—N-(1-Acryloylpiperidin-3-yl)-5-(4-((5-methylpyridin-2-yl)oxy)phenyl)-4-oxo-4,5-dihydro-3H-1-thia-3,5,8-triazaacenaphthylene-2-carboxamide] | 6.9
Cc1cc(OC2CCCC2)ncc1N1C(=O)Nc2c(C(=O)N[C@@H]3CCCNC3)sc3nccc1c23 (single isomer, unassigned) [Example 762, (R)-5-(*R)-(6-(Cyclopentyloxy)-4-methylpyridin-3-yl)-4-oxo-N-(piperidin-3-yl)-4,5-dihydro-3H-1-thia-3,5,8-triazaacenaphthylene-2-carboxamide] | <6

Same assay, conditions: pIC50 = negative log of the IC50 in molar; 60 minutes incubation, 50 nM Tracer 236

Structure (SMILES) | BTK_I_binding pIC50
N#C/C(=C\C1CC1)C(=O)N1CCC[C@@H](NC(=O)c2sc3nccc4c3c2NC(=O)N4c2c(F)cc(Oc3ccccc3)cc2F)C1 [Example 175, (R,E)-N-(1-(2-Cyano-3-cyclopropylacryloyl)piperidin-3-yl)-5-(2,6-difluoro-4-phenoxyphenyl)-4-oxo-4,5-dihydro-3H-1-thia-3,5,8-triazaacenaphthylene-2-carboxamide] | 7.6
Cc1cc(Oc2ccccc2O)ccc1N1C(=O)Nc2c(C(=O)N[C@@H]3CCCN(C)C3)sc3nccc1c23 [Example 220, (R)-5-(4-(2-Hydroxyphenoxy)-2-methylphenyl)-N-(1-methylpiperidin-3-yl)-4-oxo-4,5-dihydro-3H-1-thia-3,5,8-triazaacenaphthylene-2-carboxamide] | 6.5
CC(C)=C(C#N)C(=O)N1CCC[C@@H](NC(=O)c2sc3nccc4c3c2NC(=O)N4c2ccc(Oc3ccccc3)cc2C)C1 [Example 140, (R)—N-(1-(2-Cyano-3-methylbut-2-enoyl)piperidin-3-yl)-5-(2-methyl-4-phenoxyphenyl)-4-oxo-4,5-dihydro-3H-1-thia-3,5,8-triazaacenaphthylene-2-carboxamide] | 6.7
CCOc1ccccc1Oc1ccc(N2C(=O)Nc3c(C(=O)N[C@@H]4CCCN(C)C4)sc4nccc2c34)c(C)c1 [Example 157, (R)-5-(4-(2-Ethoxyphenoxy)-2-methylphenyl)-N-(1-methylpiperidin-3-yl)-4-oxo-4,5-dihydro-3H-1-thia-3,5,8-triazaacenaphthylene-2-carboxamide] | 6.6
Cc1cc(Oc2cccc(F)c2)ccc1N1C(=O)Nc2c(C(=O)N[C@@H]3CCCN(C)C3)sc3nccc1c23 [Example 214, (R)-5-(4-(3-Fluorophenoxy)-2-methylphenyl)-N-(1-methylpiperidin-3-yl)-4-oxo-4,5-dihydro-3H-1-thia-3,5,8-triazaacenaphthylene-2-carboxamide] | 6.8
Cc1cc(Oc2ccccc2)ccc1N1C(=O)Nc2c(C(=O)NC3CNC3)sc3nccc1c23 [Example 252, N-(azetidin-3-yl)-5-(2-methyl-4-phenoxyphenyl)-4-oxo-4,5-dihydro-3H-1-thia-3,5,8-triazaacenaphthylene-2-carboxamide] | 6.4

Same assay, conditions: pIC50 = negative log of the IC50 in molar; 60 minutes incubation, 50 nM Tracer 236; read-out: BTK_I_binding pIC50 (converted)

Structure (SMILES) | IC50 [nM]
C=CC(=O)N1C[C@H](NC(=O)c2sc3nccc4c3c2NC(=O)N4c2ccc(Oc3ccccc3)cc2C)[C@@H](F)C1 [Example 36, N-((3S,4S)-1-Acryloyl-4-fluoropyrrolidin-3-yl)-5-(2-methyl-4-phenoxyphenyl)-4-oxo-4,5-dihydro-3H-1-thia-3,5,8-triazaacenaphthylene-2-carboxamide] | 20
C=CC(=O)N1C[C@@H](F)[C@@H](NC(=O)c2sc3nccc4c3c2NC(=O)N4c2ccc(Oc3ccccc3)cc2C)C1 (single isomer, unassigned) [Example 28, N-((3S,4R)-1-Acryloyl-4-fluoropyrrolidin-3-yl)-5-(*S)-(2-methyl-4-phenoxyphenyl)-4-oxo-4,5-dihydro-3H-1-thia-3,5,8-triazaacenaphthylene-2-carboxamide] | 12.6

Same assay, conditions: unphosphorylated-BTK kinase domain, 50 nM Tracer 236, 60 minutes; pIC50 = negative log of the IC50 in molar

Structure (SMILES) | BTK_I_binding pIC50
Cc1cc(Oc2ccccc2)ccc1N1C(=O)Nc2c(C(=O)N[C@@H]3CCCN(C(=O)CN4CCCC4)C3)sc3nccc1c23 [Example 389, (R)-5-(2-Methyl-4-phenoxyphenyl)-4-oxo-N-(1-(2-(pyrrolidin-1-yl)acetyl)piperidin-3-yl)-4,5-dihydro-3H-1-thia-3,5,8-triazaacenaphthylene-2-carboxamide] | 7.0
C=CC(=O)N1CCC[C@@H](NC(=O)c2sc3nccc4c3c2NC(=O)N4c2ccnc(-c3ccccc3)c2)C1 [Example 512, (R)—N-(1-Acryloylpiperidin-3-yl)-4-oxo-5-(2-phenylpyridin-4-yl)-4,5-dihydro-3H-1-thia-3,5,8-triazaacenaphthylene-2-carboxamide] | 7.8
C=CC(=O)N1CC[C@@H](NC(=O)c2sc3nccc4c3c2NC(=O)N4c2ccccc2C)C1 [Example 314, (R)—N-(1-Acryloylpyrrolidin-3-yl)-4-oxo-5-(o-tolyl)-4,5-dihydro-3H-1-thia-3,5,8-triazaacenaphthylene-2-carboxamide] | 5.9
C=CC(=O)N1CC(NC(=O)c2sc3nccc4c3c2NC(=O)N4c2ccc(Oc3ccccc3)cc2C)C1 [Example 496, N-(1-Acryloylazetidin-3-yl)-5-(*S)-(2-methyl-4-phenoxyphenyl)-4-oxo-4,5-dihydro-3H-1-thia-3,5,8-triazaacenaphthylene-2-carboxamide] | 7.4
O=C(N[C@@H]1CCCNC1)c1sc2nccc3c2c1NC(=O)N3c1ccnc(-c2ccccc2)c1 [Example 585, (R)-4-Oxo-5-(2-phenylpyridin-4-yl)-N-(piperidin-3-yl)-4,5-dihydro-3H-1-thia-3,5,8-triazaacenaphthylene-2-carboxamide] | 6.5
C=CC(=O)N1CCC[C@@H](NC(=O)c2sc3nccc4c3c2NC(=O)N4c2cccc(-c3ccccn3)c2)C1 [Example 540, (R)—N-(1-Acryloylpiperidin-3-yl)-4-oxo-5-(3-(pyridin-2-yl)phenyl)-4,5-dihydro-3H-1-thia-3,5,8-triazaacenaphthylene-2-carboxamide] | 7.2

Same assay, conditions: unphosphorylated-BTK kinase domain, 60 minutes incubation, 50 nM Tracer 236; pIC50 = negative log of the IC50 in molar

Structure (SMILES) | BTK_I_binding pIC50
O=C(N[C@@H]1CCCNC1)c1sc2nccc3c2c1NC(=O)N3c1cccc(-c2cccnc2)c1 [Example 937, (R)-4-Oxo-N-(piperidin-3-yl)-5-(3-(pyridin-3-yl)phenyl)-4,5-dihydro-3H-1-thia-3,5,8-triazaacenaphthylene-2-carboxamide] | 6.0
